Test results as given in patent US10278942B2 (PELOTON THERAPEUTICS, INC., priority 2015, dated 2019).

biological target: T1, HIF-2α HIS TAG-PASB Domain (Homo sapiens, UniProt Q99814); assay: HIF-2α Scintillation Proximity Assay (SPA); assay type: binding; conditions: read-out: Scintillation Proximity Assay IC50
T1 construct: 100 nM HIF-2α HIS TAG-PASB Domain
Method: The total assay volume was about 100 μL in the following configuration: 2 μL compound in 100% DMSO, 88 μL buffer with protein and probe and 10 μL of SPA beads. […] The percent inhibition was determined and IC50 values were calculated using the Dotmatics system based on the following equation: % inhibition=[(high control−sample)/(high control−low control)]×100.

T1 sequence (Q99814 240-350 limits assumed): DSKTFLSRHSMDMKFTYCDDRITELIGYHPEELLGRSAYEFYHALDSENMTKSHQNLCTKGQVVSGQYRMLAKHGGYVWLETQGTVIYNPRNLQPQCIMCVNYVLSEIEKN

Row | Compound | IC50
1 | CC1(O)c2c(ccc(Oc3cc(F)cc(C#N)c3)c2C(F)F)S(=O)(=O)C1(F)F (stereo not shown) [Compound 442] | 50 to 249 nM
2 | N#Cc1cc(F)cc(Oc2ccc3c(c2C(F)F)C(O)(C(F)(F)F)C(F)(F)S3(=O)=O)c1 (stereo not shown) [Compound 445] | > 1000 nM
3 | N#Cc1c(Oc2cc(F)cc(F)c2)ccc2c1C(O)(C(F)(F)F)CS2(=O)=O (stereo not shown) [Compound 448] | > 1000 nM
4 | N#Cc1cc(F)cc(Oc2ccc3c(c2C#N)C(O)(C(F)(F)F)CS3(=O)=O)c1 (stereo not shown) [Compound 450] | > 1000 nM
5 | CC1(O)c2c(ccc(OCc3ccccc3)c2C#N)S(=O)(=O)C1(F)F (stereo not shown) [Compound 459] | > 1000 nM
6 | C=CC1(O)c2c(ccc(Oc3cc(F)cc(C#N)c3)c2C#N)S(=O)(=O)C1(F)F (stereo not shown) [Compound 460] | > 1000 nM
7 | CC1(O)c2c(ccc(OC3CC(F)(F)C3)c2C#N)S(=O)(=O)C1(F)F (stereo not shown) [Compound 461] | > 1000 nM
8 | Fc1cc(F)cc(Oc2ncc(Br)c3c2CCC3)c1 [Compound 469, 4-bromo-1-(3,5-difluorophenoxy)-6,7-dihydro-5H-cyclopenta[c]pyridine] | > 1000 nM
9 | O[C@H]1c2c(C(F)(F)F)ncc(O[C@H]3C[C@H](F)C3)c2C[C@H]1F [Compound 478] | < 50 nM
10 | CS(=O)(=O)c1ccc(N2CCC[C@H](O)C2)c2c1[C@H](O)C(F)(F)[C@@H]2F [Compound 484, (S)-1-((1S,3R)-2,2,3-trifluoro-1-hydroxy-7-(methylsulfonyl)-2,3-dihydro-1H-inden-4-yl)piperidin-3-ol] | > 1000 nM
11 | O=S(=O)(c1ccc(N2CCOCC2)c2c1[C@H](O)C(F)(F)C2)C(F)(F)F [Compound 490, (S)-2,2-difluoro-4-morpholino-7-((trifluoromethyl)sulfonyl)-2,3-dihydro-1H-inden-1-ol] | > 1000 nM
12 | O=S(=O)(c1ccc(Sc2cc(F)cc(Cl)c2)c2c1[C@H](O)CC2)C(F)F [Compound 493, (R)-4-((3-chloro-5-fluorophenyl)thio)-7-((difluoromethyl)sulfonyl)-2,3-dihydro-1H-inden-1-ol] | > 1000 nM
13 | O=S(=O)(c1ccc(NC2CCOCC2)c2c1[C@H](O)CC2)C(F)F [Compound 494, (1R)-7-(difluoromethylsulfonyl)-4-(tetrahydropyran-4-ylamino)indan-1-ol] | > 1000 nM
14 | CS(=O)(=O)c1ccc(Nc2ccc(F)cc2)c2c1C(O)CC2 (stereo not shown) [Compound 497] | > 1000 nM
15 | CS(=O)(=O)c1ccc(Nc2cc(F)cc(C#N)c2)c2c1C(O)CC2 (stereo not shown) [Compound 498] | > 1000 nM
16 | CS(=O)(=O)c1ccc(Nc2cncc(Cl)c2)c2c1C(O)CC2 (stereo not shown) [Compound 499] | > 1000 nM
17 | CS(=O)(=O)c1ccc(Nc2cncc(Cl)c2)c2c1C(O)C(F)(F)C2 (stereo not shown) [Compound 500] | > 1000 nM
18 | CS(=O)(=O)c1ccc(Nc2ccc(F)cc2)c2c1C(O)C(F)(F)C2 (stereo not shown) [Compound 501] | > 1000 nM
19 | CS(=O)(=O)c1ccc(Nc2cc(F)cc(C#N)c2)c2c1C(O)C(F)(F)C2 (stereo not shown) [Compound 502] | > 1000 nM
20 | O=S(=O)(c1ccc(Nc2cncc(Cl)c2)c2c1C(O)CC2)C(F)(F)F (stereo not shown) [Compound 503] | > 1000 nM
21 | O=S(=O)(c1ccc(Nc2ccc(F)c(Cl)c2)c2c1C(O)CC2)C(F)(F)F (stereo not shown) [Compound 504] | > 1000 nM
22 | O=S(=O)(c1ccc(CC2CCCCC2)c2c1C(O)CC2)C(F)(F)F (stereo not shown) [Compound 508] | > 1000 nM
23 | O=S(=O)(c1ccc(Cc2ccccc2)c2c1C(O)CC2)C(F)(F)F (stereo not shown) [Compound 510] | > 1000 nM
24 | O=S(=O)(c1ccc(C2CC2)c2c1C(O)CC2)C(F)(F)F (stereo not shown) [Compound 512] | > 1000 nM
25 | CCc1ccc(S(=O)(=O)C(F)(F)F)c2c1CCC2O (stereo not shown) [Compound 514] | > 1000 nM
26 | CCCc1ccc(S(=O)(=O)C(F)(F)F)c2c1CCC2O (stereo not shown) [Compound 515] | > 1000 nM

Row | Compound | IC50
27 | CC(=O)Nc1ccc(S(=O)(=O)C(F)(F)F)c2c1CCC2O (stereo not shown) [Compound 518] | > 1000 nM
28 | N#Cc1ccc(F)c2c1CC(F)(F)C2O (stereo not shown) [Compound 519] | > 1000 nM
29 | O=S(=O)(c1ccc(CCO)c2c1C(O)C(F)(F)C2)C(F)(F)F (stereo not shown) [Compound 520] | > 1000 nM
30 | O=S(=O)(c1ccc(CC(O)CO)c2c1C(O)C(F)(F)C2)C(F)(F)F (stereo not shown) [Compound 521, 3-(2,2-difluoro-1-hydroxy-7-((trifluoromethyl)sulfonyl)-2,3-dihydro-1H-inden-4-yl)propane-1,2-diol] | > 1000 nM
31 | O=S(=O)(c1ccc(CCCO)c2c1C(O)CC2)C(F)(F)F (stereo not shown) [Compound 522, 4-(3-hydroxypropyl)-7-((trifluoromethyl)sulfonyl)-2,3-dihydro-1H-inden-1-ol] | 250 to 1000 nM
32 | O=C(O)Cc1ccc(S(=O)(=O)C(F)(F)F)c2c1CC[C@H]2O [Compound 524, (R)-2-(1-hydroxy-7-((trifluoromethyl)sulfonyl)-2,3-dihydro-1H-inden-4-yl)acetic acid] | > 1000 nM
33 | NC(=O)Cc1ccc(S(=O)(=O)C(F)(F)F)c2c1CC[C@H]2O [Compound 525] | > 1000 nM
34 | NC(=O)Cc1ccc(S(=O)(=O)C(F)(F)F)c2c1CC(F)(F)C2O (stereo not shown) [Compound 526] | > 1000 nM
35 | NC(=O)Cc1ccc(S(=O)(=O)C(F)(F)F)c2c1CC(F)(F)[C@H]2O [Compound 527] | > 1000 nM
36 | O=S(=O)(c1ccc(NCc2cccs2)c2c1[C@H](O)C(F)(F)C2)C(F)F [Compound 528] | > 1000 nM
37 | O=S(=O)(c1ccc(NCc2ccco2)c2c1[C@H](O)C(F)(F)C2)C(F)F [Compound 529] | > 1000 nM
38 | CN(Cc1cccs1)c1ccc(S(=O)(=O)C(F)F)c2c1CC(F)(F)[C@H]2O [Compound 530] | > 1000 nM
39 | O=S(=O)(c1ccc(C(O)CO)c2c1[C@H](O)C(F)(F)C2)C(F)(F)F (stereo partly shown) [Compound 533] | > 1000 nM
40 | O=S(=O)(c1ccc(Cn2nccn2)c2c1[C@H](O)C(F)(F)C2)C(F)(F)F [Compound 535] | > 1000 nM
41 | O=S(=O)(c1ccc(Cn2ccnn2)c2c1[C@H](O)C(F)(F)C2)C(F)(F)F [Compound 536] | > 1000 nM
42 | O=S(=O)(c1ccc(CO)c2c1[C@H](O)C(F)(F)C2)C(F)(F)F [Compound 537] | > 1000 nM
43 | Nc1ncccc1-c1ccc(S(=O)(=O)C(F)(F)F)c2c1CC(F)(F)[C@H]2O [Compound 539] | > 1000 nM
44 | Nc1ccc(Cl)cc1-c1ccc(S(=O)(=O)C(F)(F)F)c2c1CC(F)(F)[C@H]2O [Compound 540] | > 1000 nM
45 | CC1(C)C=C(c2ccc(S(=O)(=O)C(F)(F)F)c3c2CC(F)(F)[C@H]3O)C(=O)CC1 [Compound 541] | > 1000 nM
46 | CC1(C)C=C(c2ccc(S(=O)(=O)C(F)(F)F)c3c2CC(F)(F)[C@H]3O)C(O)CC1 (stereo partly shown) [Compound 543] | > 1000 nM
47 | CC1(C)CC[C@H](O)[C@@H](c2ccc(S(=O)(=O)C(F)(F)F)c3c2CC(F)(F)[C@H]3O)C1 [Compound 544] | > 1000 nM
48 | CC1(C)CCC(=O)[C@@H](c2ccc(S(=O)(=O)C(F)(F)F)c3c2CC(F)(F)[C@H]3O)C1 [Compound 546] | > 1000 nM
49 | CC1(C)CC[C@H](O)[C@H](c2ccc(S(=O)(=O)C(F)(F)F)c3c2CC(F)(F)[C@H]3O)C1 [Compound 548] | > 1000 nM
50 | CC1(C)C[C@@H](O)C[C@H](c2ccc(S(=O)(=O)C(F)(F)F)c3c2CC(F)(F)[C@H]3O)C1 [Compound 552] | > 1000 nM
51 | CS(=O)(=O)c1ccc(N2CCC[C@@H](O)C2)c2c1[C@H](O)C(F)(F)[C@@H]2F [Compound 553] | > 1000 nM
52 | CS(=O)(=O)c1ccc(C(F)(F)CO)c2c1C(O)C(F)(F)C2 (stereo not shown) [Compound 555] | > 1000 nM
